In ChEMBL document CHEMBL4219154, “Design, synthesis, nuclear localization, and biological activity of a fluorescent duocarmycin analog, HxTfA” (Bioorg Med Chem Lett, 2018):
Activity calls are given as the source filed them. The calls are words filed in the database; no cut-off is given here.

Key:
A549 [1] = experiment: Cytotoxicity against human A549 cells after 4 days by MTT assay; type: functional, cell-based; conditions: A549, 96 h
A549 [2] = experiment: Cytotoxicity against human A549 cells after 3 days by MTT assay; type: functional, cell-based; conditions: A549, 72 h
A549 [3] = experiment: Induction of apoptosis in human A549 cells assessed as decrease in survivin level at 0.1 uM incubated for 5 hrs followed by 24 hrs incubation in drug free medium by immunoblotting based confocal microscopy; type: functional, cell-based
A549 [4] = experiment: Induction of apoptosis in human A549 cells assessed as decrease in Bcl-xL level at 0.05 to 20 uM incubated for 5 hrs followed by 24 hrs incubation in drug free medium by immunoblotting based confocal microscopy; type: functional, cell-based
B16 = experiment: Cytotoxicity against mouse B16 cells after 3 days by MTT assay; type: functional, cell-based; conditions: B16, 72 h
Escherichia coli [5] = experiment: Alkylating activity at N3 position of 5'-AAAAA-3' (865) in Escherichia coli pUC18 DNA at 0.1 uM after 5 hrs by electrophoresis analysis; type: functional
A549 [6] = experiment: Induction of apoptosis in human A549 cells assessed as increase in gamma-H2AX level at 0.1 to 5 uM incubated for 5 hrs followed by 24 hrs incubation in drug free medium by confocal microscopy; type: functional, cell-based
Plasmodium falciparum = experiment: Antiplasmodial activity against Plasmodium falciparum 3D7 infected in red blood cells after 48 hrs; type: functional, organism-based; conditions: 3D7, 48 h
A549 [7] = experiment: Induction of apoptosis in human A549 cells assessed as increase in gamma-H2AX level at 0.1 to 10 uM incubated for 5 hrs followed by 24 hrs incubation in drug free medium by immunofluorescence assay; type: functional, cell-based
A549 [8] = experiment: Induction of apoptosis in human A549 cells assessed as decrease in Bcl-xL level at 0.1 to 20 uM incubated for 5 hrs followed by 24 hrs incubation in drug free medium by immunoblotting based confocal microscopy; type: functional, cell-based
Escherichia coli [9] = experiment: Induction of DNA cleavage at AT-mixed sequence 5'-TTTTA-3'(843) in Escherichia coli pUC18 DNA at 0.1 to 30 uM after 5 hrs by electrophoresis analysis
A549 [10] = experiment: Induction of apoptosis in human A549 cells assessed as increase in cleaved caspase 3 level at 1 uM incubated for 5 hrs followed by 24 hrs incubation in drug free medium by immunofluorescence assay; type: functional, cell-based
[11] = Drug uptake in nucleus of human A549 cells at 50 to 100 uM after 24 hrs by mitrotracker red CMXRos staining based fluorescence microscopy; type: ADME, subcellular; conditions: a549, 24 h
Escherichia coli [12] = experiment: Alkylating activity at N3 position of 5'-AAAAA-3' (865) in Escherichia coli pUC18 DNA at 1 uM after 5 hrs by electrophoresis analysis; type: functional
[13] = Drug uptake in nucleus of human A549 cells at 1 uM after 24 hrs by propidium iodide staining based confocal microscopy; type: ADME, subcellular; conditions: a549, 24 h
A549 [14] = experiment: Induction of apoptosis in human A549 cells assessed as decrease in survivin level at 1 to 20 uM incubated for 5 hrs followed by 24 hrs incubation in drug free medium by immunoblotting based confocal microscopy; type: functional, cell-based

Activity (Escherichia coli [9])	Drug uptake [11]	Drug uptake [13]	Structure (SMILES)	IC50 (A549 [1])	IC50 (A549 [2])	Activity (A549 [3])	Activity (A549 [4])	IC50 (B16)	Activity (Escherichia coli [5])	Activity (A549 [6])	IC50 (Plasmodium falciparum)	Activity (A549 [7])	Activity (A549 [8])	Activity (A549 [10])	Activity (Escherichia coli [12])	Activity (A549 [14])
			COc1cc2cc(C(=O)N3CC(CCl)c4c3cc(O)c3ccoc43)[nH]c2c(OC)c1OC (stereo not given)	3.7 nM	53 nM	Active	inactive	40 nM	Active	Active	0.064 nM	Active				
Active	Active	Active	COc1ccc(-c2nc3ccc(C(=O)N4CC(CCl)c5c4cc(O)c4ccoc54)cc3[nH]2)cc1 (stereo not given)	26 nM						Active	3.7 nM	Active	inactive	Active	Active	Active
